This is an account of results in patent US8361999B2, “Methods of treating cholesterol gallstone disease with ezetimibe” (Pontificia Universidad Catolica de Chile, priority 2005, dated 2013).

The structures appear in SMILES notation.

The experiment deals with C57BL/6J mice. Description: Lithiasis of the gallbladder and cholesterol crystals in gallbladder bile, protocol #1 (14 days). It is filed as in vivo, mouse. The conditions noted are these: for formation of cholesterol crystals and cholesterol gallstones: C57BL/6 mice on lithogenic diet plus ezetimibe. The text has this: Experimental Animal Disease Models. Spontaneous cholelithiasis is extremely rare in experimental or wild animals, probably because they secrete low levels of cholesterol into the bile and have therefore non-saturated cholesterol bile. However, different animal models (rabbit, hamster, prairie dog, squirrel and mouse) develop cholelithiasis similar to the human disease on cholesterol rich plus bile salts (cholic acid) and sometimes triglycerides rich experimental diets. The mouse is the best characterized experimental model where the development of the disease is dependent of a diet known as “lithogenic” (1.25% cholesterol, 0.5% cholic acid, 15% fat). Under these conditions most of the available mouse strains develop cholesterol cholelithiasis in variable proportions and times (Paigen, 2002). It has been established that there are strains more susceptible or more resistant to develop cholelithiasis, which could be genetically determined. The mice strains C57L and C57BL/6 are particularly susceptible to develop cholelithiasis (80-100% of the animals develop the disease in 2-4 weeks on lithogenic diet) (Paigen, 2002; Bouchard et al., unpublished data communicated in www.jax.org/pub-cgi/phenome). Studies performed in these models during the last years have been vital in the better understanding of the disease and for the discovery of genes that are potentially relevant in generating susceptibility to the illness (Paigen, 2002). In this preclinical innovation work we use the mouse strain C57BL/6.
We used mice C57BL/6J susceptible to the development of cholelithiasis originally obtained from Jackson Corp (Bar Harbor, Me., USA) and the colonies were grown in our Laboratory of Gastroenterology, Facultad de Medicina, P. Universidad Católica de Chile. The experimental groups were fed a control chow diet low in cholesterol (<0.02% cholesterol, Prolab RMH3000, PMI Feeds Inc., St. Louis, Mo.) or a lithogenic diet (1.25% cholesterol, 0.5% cholic acid, 15% fat, TD90221, Harlan Teklad, Madison, Wis.) (Amigo et al. 2000). These mice were also treated with Ezetimibe (Zetia®, Merk/Schering Plough) or placebo. In protocol #1 Zetia® tablets were grinded in a porcelain mortar and dissolved in water to be administered to the mice in one daily dose (08 h) of 5 mg/Kg weight by gavage in a final volume of […]; the control groups were given the same volume of water by gavage without the drug. In protocol #2 Zetia® tablets were grinded in the same way described above, dissolved in 200 cc 100% ethanol (Merck) and added to the lithogenic diet previously grinded and dried for 48 h at room temperature. C57BL/6J mice received this lithogenic diet plus Zetia® in a estimated dose of 5-6 mg/kg/day during 30 days (the mice consume 4-5 gr of diet per day). […]

Regarding `O=C1[C@H](CC[C@H](O)c2ccc(F)cc2)[C@@H](c2ccc(O)cc2)N1c1ccc(F)cc1` [Ezetimibe, (−)-1-(4-fluorophenyl)-(3R)-[3-(4-fluorophenyl)-(.S)-hydroxypropyl]-(4S)-(4-hydroxyphenyl)-2-azetidinone], the “formation of cholesterol crystals and cholesterol gallstones” value is “complete inhibition”. Also, the “formation of cholesterol crystals and cholesterol gallstones” value (listed as ezetimibe) was “inhibited”. Moreover, the “development of cholelithiasis or cholesterol crystals in the bile” value (control diet low in cholesterol plus Ezetimibe) is listed as “did not develop cholelithiasis or cholesterol crystals”. The “mice that developed gallstones or cholesterol crystals in the gallbladder” value (lithogenic diet plus Ezetimibe 5 mg/kg/day by gavage, 100% in lithogenic diet plus water) is recorded as “none”.
